In US11584714B2 (priority 2018, dated 2023):
Counter-ions that a name gives are not always drawn. Like-named read-outs stand apart in the source and are kept apart here.

Key:
Format in all cases: biochemical
[1] = biological target: human α-thrombin (Homo sapiens (Human), UniProt P00734); experiment: Enzymatic assay for thrombin (Boc-VPR-AMC substrate)
[2] = system: Lectin Pathway; experiment: Lectin pathway activation assay in human serum (mannan-coated ELISA, C3c detection); conditions: 1% human serum
[3] = biological target: MASP-2 (CCP1-CCP2-SP) (Homo sapiens (Human), UniProt O00187); experiment: biochemical
Chain of MASP-2 (CCP1-CCP2-SP) (O00187 445-686): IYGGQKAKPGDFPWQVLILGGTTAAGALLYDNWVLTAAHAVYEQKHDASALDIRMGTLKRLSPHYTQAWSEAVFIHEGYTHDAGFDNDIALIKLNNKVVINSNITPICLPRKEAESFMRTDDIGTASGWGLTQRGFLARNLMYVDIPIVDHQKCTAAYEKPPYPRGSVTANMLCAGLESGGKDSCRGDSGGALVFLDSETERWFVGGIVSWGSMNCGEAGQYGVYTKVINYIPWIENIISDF

[4] = biological target: mMASP-2 (Mus musculus (Mouse), UniProt Q91WP0); experiment: Enzymatic inhibition of mMASP-2
Chain of mMASP-2 (Q91WP0 20-685): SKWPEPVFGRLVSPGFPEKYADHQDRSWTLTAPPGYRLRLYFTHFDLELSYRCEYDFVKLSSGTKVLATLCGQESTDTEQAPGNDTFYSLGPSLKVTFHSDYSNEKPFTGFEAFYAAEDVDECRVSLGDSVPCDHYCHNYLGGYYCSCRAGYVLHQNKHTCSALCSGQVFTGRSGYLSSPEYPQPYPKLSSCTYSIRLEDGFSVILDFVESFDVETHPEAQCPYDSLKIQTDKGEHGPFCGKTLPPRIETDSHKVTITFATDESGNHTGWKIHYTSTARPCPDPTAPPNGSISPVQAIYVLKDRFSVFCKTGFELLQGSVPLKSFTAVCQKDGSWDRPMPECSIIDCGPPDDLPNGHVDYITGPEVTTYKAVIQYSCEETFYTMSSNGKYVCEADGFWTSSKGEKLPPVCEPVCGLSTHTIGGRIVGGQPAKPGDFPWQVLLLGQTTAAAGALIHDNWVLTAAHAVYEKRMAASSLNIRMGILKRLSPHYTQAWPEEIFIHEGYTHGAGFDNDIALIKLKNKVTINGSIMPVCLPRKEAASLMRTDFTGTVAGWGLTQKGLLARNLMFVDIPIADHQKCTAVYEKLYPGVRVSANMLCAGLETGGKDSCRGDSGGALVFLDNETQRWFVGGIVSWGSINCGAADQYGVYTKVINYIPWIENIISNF

[5] = MASP-2 inhibition versus thrombin
[6] = selectivity for MASP-2 inhibition versus thrombin

Compound | Ki ([1]; read-out: Thrombin Ki) | IC50 [2] | MASP-2 vs. thrombin selectivity [3, 5] | Ki ([3]; read-out: MASP-2 Ki) | also measured
C[C@H](NC(=O)[C@H]1C[C@@H](c2ccccc2)CCN1)C(=O)NCc1ccc(N)nc1 (stereo in doubt) [compound 1025] | > 25 µM | 500 to 5000 nM | – | – | –
N=C(N)c1ccc(CNC(=O)[C@@H]2CCN2C(=O)[C@H](N)C2CCCC2)cc1 [compound 1008] | < 0.5 µM | 5000 to 50000 nM | – | – | –
N=C(N)c1ccc(CNC(=O)[C@@H]2CCN2C(=O)[C@H](N)c2ccccc2)cc1 [compound 1011, (S)-1-((R)-2-amino-2-phenylacetyl)-N-(4-carbamimidoylbenzyl)azetidine-2-carboxamide] | < 0.5 µM | 500 to 5000 nM | −− (less than 1.0-fold) | < 500 nM | –
N=C(N)c1ccc(CNC(=O)[C@@H]2CCN2C(=O)[C@@H](N)C2CCCCC2)cc1 [compound 1018] | – | > 50000 nM | – | – | –
N=C(N)c1ccc(CNC(=O)[C@@H]2CCN2C(=O)[C@H](N)Cc2ccccc2)cc1 [compound 1023] | < 0.5 µM | 5000 to 50000 nM | – | – | –
C[C@H](NC(=O)[C@H](N)C1Cc2ccccc2C1)C(=O)NCc1ccc(C(=N)N)cc1 [compound 1035] | < 0.5 µM | < 50 nM | ** (5.0 to 25-fold) | < 500 nM | –
Nc1nccc2cc(CNC(=O)[C@@H]3CCN3C(=O)[C@H](N)C3CCCCC3)ccc12 [compound 1041, (S)-1-((R)-2-Amino-2-cyclohexylacetyl)-N-((1-aminoisoquinolin-6-yl)methyl)azetidine-2-carboxamide dihydrochloride] | < 0.5 µM | 5000 to 50000 nM | – | – | –
C[C@H](NC(=O)[C@H](N)CCCc1ccccc1)C(=O)NCc1ccc(C(=N)N)cc1 [compound 1042] | < 0.5 µM | < 50 nM | ** (5.0 to 25-fold) | < 500 nM | –
N=C(N)c1ccc(CNC(=O)[C@@H]2CCCCN2C(=O)[C@H](N)C2CCCCC2)cc1 [compound 1051] | < 0.5 µM | 5000 to 50000 nM | – | – | –
C[C@H](NC(=O)[C@H]1Cc2ccccc2CN1)C(=O)NCc1ccc2c(N)nccc2c1 [compound 1053] | – | 500 to 5000 nM | – | – | –
N=C(N)c1ccc(CNC(=O)CNC(=O)[C@H](NCC(=O)O)C2CCCCC2)cc1 [compound 1054] | – | 5000 to 50000 nM | – | – | –
CC(C)(C)[C@@H](NCC(=O)O)C(=O)N1CC[C@H]1C(=O)NCc1ccc(C(=N)N)cc1 [compound 1055] | < 0.5 µM | 5000 to 50000 nM | – | – | –
N=C(N)c1ccc(CNC(=O)[C@@H]2CCN2C(=O)[C@H](N)CCCc2ccccc2)cc1 [compound 1069] | < 0.5 µM | 500 to 5000 nM | −− (less than 1.0-fold) | < 500 nM | –
C[C@H](NC(=O)[C@H]1C[C@@H](c2ccccc2)CCN1)C(=O)NCc1cc(Cl)ccc1O [compound 1078] | – | 500 to 5000 nM | – | < 500 nM | –
N=C(N)c1ccc(CNC(=O)[C@@H]2CCN2C(=O)[C@H](NCC(=O)O)C2CCCC2)cc1 [compound 1083] | < 0.5 µM | 5000 to 50000 nM | −− (less than 1.0-fold) | < 500 nM | –
C[C@H](NC(=O)[C@H](NCC(=O)O)C1CCCCC1)C(=O)NCc1ccc(C(=N)N)cc1 [compound 1094] | < 0.5 µM | 5000 to 50000 nM | −− (less than 1.0-fold) | < 500 nM | –
Cc1cccc(C2CCNC(C(=O)N[C@@H](C)C(=O)NCc3ccc(C(=N)N)cc3)C2)c1 (some centres unmarked) [compound 1098] | – | < 50 nM | – | < 500 nM | –
C[C@H](NC(=O)[C@H](N)Cc1csc2ccccc12)C(=O)NCc1ccc(C(=N)N)cc1 [compound 1099] | < 0.5 µM | 50 to 500 nM | −− (less than 1.0-fold) | < 500 nM | –
N=C(N)c1ccc(CNC(=O)[C@@H]2CCN2C(=O)[C@@H](Cc2ccccc2)NCC(=O)O)cc1 [compound 1109] | < 0.5 µM | > 50000 nM | – | – | –

Compound | Ki ([1]; read-out: Thrombin Ki) | IC50 [2] | MASP-2 vs. thrombin selectivity [3, 5] | Ki ([3]; read-out: MASP-2 Ki) | also measured
N=C(N)c1ccc(CNC(=O)[C@@H]2CCN2C(=O)[C@@H](CC2CCCCC2)NCC(=O)O)cc1 [compound 1114] | < 0.5 µM | 500 to 5000 nM | −− (less than 1.0-fold) | < 500 nM | –
N=C(N)c1ccc(CNC(=O)[C@@H]2CCCN2C(=O)[C@H](NCC(=O)O)C2CCCCC2)cc1 [compound 1115] | < 0.5 µM | 500 to 5000 nM | −− (less than 1.0-fold) | < 500 nM | –
N=C(N)c1ccc(CNC(=O)[C@@H]2CCN2C(=O)[C@H](NCC(=O)O)C2CCCCC2)cc1O [compound 1116, ((R)-2-((S)-2-((4-Carbamimidoyl-3-hydroxybenzyl)carbamoyl)azetidin-1-yl)-1-cyclohexyl-2-oxoethyl)glycine] | < 0.5 µM | 5000 to 50000 nM | – | – | –
C[C@H](NC(=O)[C@H](NCC(=O)O)C1Cc2ccccc2C1)C(=O)NCc1ccc(C(=N)N)cc1 [compound 1123] | – | 500 to 5000 nM | – | – | –
N=C(N)c1ccc(CNC(=O)[C@@H]2CCCCN2C(=O)[C@H](NCC(=O)O)C2CCCCC2)cc1 [compound 1127] | < 0.5 µM | 5000 to 50000 nM | – | – | –
N=C(N)c1ccc(CNC(=O)[C@@H]2CCN2C(=O)[C@H](NCC(=O)O)C2Cc3ccccc3C2)cc1 [compound 1129] | < 0.5 µM | 500 to 5000 nM | −− (less than 1.0-fold) | < 500 nM | –
N=C(N)c1ccc(CNC(=O)[C@@H]2CCN2C(=O)[C@@H](CCCc2ccccc2)NCC(=O)O)cc1 [compound 1131] | < 0.5 µM | 500 to 5000 nM | −− (less than 1.0-fold) | < 500 nM | –
Cc1ccc(CSC(C)(C)[C@@H](N)C(=O)N2CC[C@H]2C(=O)NCc2ccc(C(=N)N)cc2)cc1 [compound 1133] | < 0.5 µM | 5000 to 50000 nM | −− (less than 1.0-fold) | < 500 nM | –
CCNC(=O)COc1ccc(Cl)cc1CNC(=O)[C@H](C)NC(=O)[C@H](N)CCc1ccccc1 [compound 1137, (R)-2-Amino-N—((S)-1-((5-chloro-2-(2-(ethylamino)-2-oxoethoxy)benzyl)amino)-1-oxopropan-2-yl)-4-phenylbutanamide] | – | > 50000 nM | – | – | –
C[C@H](NC(=O)[C@@H](CCc1ccccc1)NCCCc1ccc(O)cc1)C(=O)NCc1ccc(C(=N)N)cc1 [compound 1145] | – | 50 to 500 nM | – | < 500 nM | –
C[C@H](NC(=O)[C@H](N)C1Cc2ccccc2C1)C(=O)NCc1ccc2nc(N)n(C)c2c1 [compound 1171] | > 25 µM | > 50000 nM | – | – | –
C[C@H](NC(=O)c1cc(-c2ccccc2)c(-c2ccccc2)[nH]1)C(=O)NCc1ccc(C(=N)N)cc1 [compound 1240, (S)—N-(1-((4-Carbamimidoylbenzyl)amino)-1-oxopropan-2-yl)-4,5-diphenyl-1H-pyrrole-2-carboxamide] | – | 500 to 5000 nM | – | – | Ki ([1]; Thrombin Ki (μM)): 10 to 25 µM; Ki [3]: 500 to 2500 nM; MASP-2 vs. thrombin selectivity [3, 6]: ** (≥5.0 to <25-fold)
Cc1nc(N)ccc1CNC(=O)[C@H](C)NC(=O)[C@H]1C[C@H](Cc2cccc3cnccc23)CN1 [compound 1343, (2R,4S)—N—((S)-1-(((6-Amino-2-methylpyridin-3-yl)methyl)amino)-1-oxopropan-2-yl)-4-(isoquinolin-5-ylmethyl)pyrrolidine-2-carboxamide Di-trifluoroacetate salt] | – | 50 to 500 nM | – | – | –
Cc1cnc(NCCc2ccccc2)c(=O)n1CC(=O)NCc1cc(Cl)ccc1-n1cnnn1 [compound 1489, N-(5-Chloro-2-(1H-tetrazol-1-yl)benzyl)-2-(6-methyl-2-oxo-3-(phenethylamino)pyrazin-1(2H)-yl)acetamide] | < 0.5 µM | – | – | < 500 nM | MASP-2 vs. thrombin selectivity [3, 6]: −− (<1.0-fold); Ki ([4]; read-out: mMASP-2 Ki): 500 to 2500 nM
C[C@H](NC(=O)[C@H]1C[C@H](c2ccccc2)CN1)C(=O)NCc1cc2c(Br)cncc2[nH]1 [compound 1493, (2R,4R)—N—((S)-1-(((4-Bromo-1H-pyrrolo[2,3-c]pyridin-2-yl)methyl)amino)-1-oxopropan-2-yl)-4-phenylpyrrolidine-2-carboxamide Di-trifluoroacetate salt] | – | – | – | – | Ki ([1]; Thrombin Ki (μM)): 10 to 25 µM; Ki [3]: 10000 to 25000 nM; MASP-2 vs. thrombin selectivity [3, 6]: * (≥1.0 to <5.0-fold); Ki ([4]; read-out: mMASP-2 Ki): > 25000 nM
C[C@H](NC(=O)[C@H]1C[C@H](Cc2ccc(F)c(Cl)c2)CN1)C(=O)NCc1cc2cnccc2[nH]1 [compound 1494, (2R,4S)—N—((S)-1-(((1H-Pyrrolo[3,2-c]pyridin-2-yl)methyl)amino)-1-oxopropan-2-yl)-4-(3-chloro-4-fluorobenzyl)pyrrolidine-2-carboxamide Di-trifluoroacetate salt] | – | – | – | < 500 nM | Ki ([1]; Thrombin Ki (μM)): 2.5 to 10 µM; MASP-2 vs. thrombin selectivity [3, 6]: **** (≥100-fold); Ki ([4]; read-out: mMASP-2 Ki): < 500 nM
C[C@H](NC(=O)[C@H]1C[C@H](c2ccccc2)CN1)C(=O)NCc1cc2ccncc2[nH]1 [compound 1495, (2R,4R)—N—((S)-1-(((1H-Pyrrolo[2,3-c]pyridin-2-yl)methyl)amino)-1-oxopropan-2-yl)-4-phenylpyrrolidine-2-carboxamide Di-trifluoroacetate salt] | > 25 µM | – | – | 2500 to 10000 nM | MASP-2 vs. thrombin selectivity [3, 6]: ** (≥5.0 to <25-fold); Ki [4]: 500 to 2500 nM
CCN1CC[C@H](c2ccccc2)C[C@@H]1C(=O)N[C@@H](C)C(=O)NCc1ccc(N)nc1C [compound 1496, (2R,4S)—N—((S)-1-(((6-Amino-2-methylpyridin-3-yl)methyl)amino)-1-oxopropan-2-yl)-1-ethyl-4-phenylpiperidine-2-carboxamide] | > 25 µM | – | – | < 500 nM | Ki ([4]; read-out: mMASP-2 Ki): 500 to 2500 nM
Cc1nc(N)ccc1CNC(=O)[C@H](C)N(C)C(=O)[C@H]1C[C@H](Cc2ccc(Br)cc2)CN1 [compound 1497, (2R,4S)—N—((S)-1-(((6-Amino-2-methylpyridin-3-yl)methyl)amino)-1-oxopropan-2-yl)-4-(4-bromobenzyl)-N-methylpyrrolidine-2-carboxamide Di-trifluoroacetate salt] | – | – | – | < 500 nM | Ki ([1]; Thrombin Ki (μM)): 2.5 to 10 µM; MASP-2 vs. thrombin selectivity [3, 6]: ** (≥5.0 to <25-fold); Ki ([4]; read-out: mMASP-2 Ki): 2500 to 10000 nM
